In general, IC50 refers to the concentration needed to halve the response being measured. Read a high IC50 as lower potency.

Our source for the inhibition and IC50 values is US20260297092A1, “PYRAZOLOPYRIMIDINE DERIVATIVES AS INHIBITORS OF NLRP3” (Takeda Pharmaceutical Company Limited, priority 2023, published 2026).

For experiment [1], the system named is NLRP3 inflammasome (IL-1β production in THP-1 cells). In words: IL-1β TR-FRET Assay (percentage of inhibition at 300 nM, 6 μM or 10 μM). The format is cell-based, human. As to conditions: Homo sapiens, THP-1, 300 nM, LPS priming, ATP activation, read-out: IL-1β inhibitory rate at 300 nM (%). The method, boiled down:
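THP-1 cells were differentiated with 25 ng/mL IFN-γ for 24 h, primed with 50 ng/mL LPS in serum-free medium for 24 h, then given compound for 30 min before 20 mM ATP for 2 h. Supernatant IL-1β was measured by HTRF after 16-24 h at room temperature. Inhibition was normalized between DMSO (high) and 3 μM MCC-950 (low).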

The test system of experiment [2] is TNF-α (NF-κB pathway, THP-1 cells). Nature of the experiment: TNF-α Assay (IC50). The format is cell-based, human. As to conditions: Homo sapiens, 600 ng/mL LPS, 3 hours. In outline:
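THP-1 cells differentiated to macrophages with 25 ng/mL IFN for 24 h, plated 40,000/well in serum-free medium, preincubated with compounds 30 min at 37 °C, then stimulated with 600 ng/mL LPS for 3 h. Supernatant TNF-α measured by ELISA; IC50 from four-parameter logistic fit, 100% inhibition defined by TPCA-1.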

On to `CCOc1nc2nn(-c3ccc(C(F)(F)F)cc3O)c(C)c2c(=O)[nH]1` [Example 59, 6-ethoxy-2-[2-hydroxy-4-(trifluoromethyl)phenyl]-3-methyl-2,5-dihydro-4H-pyrazolo[3,4-d]pyrimidin-4-one], for which, in experiment [1], the inhibition at 0.3 µM stood at 98%. Moreover, in experiment [2], the IC50 is over 30 µM.
As to `CCOc1nc2nn(-c3ccc(Cl)cc3O)c(C)c2c(=O)[nH]1` [Example 60, 2-(4-chloro-2-hydroxyphenyl)-6-ethoxy-3-methyl-2,5-dihydro-4H-pyrazolo[3,4-d]pyrimidin-4-one], the inhibition at 0.3 µM in experiment [1] was 100%. This compound also registered an IC50 in experiment [2] of over 30 µM.
The matching figures for `Cc1cc(C)c(-n2cc3c(=O)[nH]c(-c4cnccn4)nc3n2)c(O)c1` [Example 61, 2-(2-hydroxy-4,6-dimethylphenyl)-6-(pyrazin-2-yl)-2,5-dihydro-4H-pyrazolo[3,4-d]pyrimidin-4-one]: 100% and over 30 µM.
As to `Cc1cc(C)c(-n2cc3c(=O)[nH]c(CN4CCOCC4)nc3n2)c(O)c1` [Example 62, 2-(2-hydroxy-4,6-dimethylphenyl)-6-[(morpholin-4-yl)methyl]-2,5-dihydro-4H-pyrazolo[3,4-d]pyrimidin-4-one], the inhibition at 0.3 µM in experiment [1] is 95%. For the same compound, the IC50 in experiment [2] is over 30 µM.
For `CCOc1nc2nn(-c3c(F)cc(C)cc3C(F)F)cc2c(=O)[nH]1` [Example 63, 2-[2-(difluoromethyl)-6-fluoro-4-methylphenyl]-6-ethoxy-2,5-dihydro-4H-pyrazolo[3,4-d]pyrimidin-4-one], in experiment [1], the inhibition at 0.3 µM amounted to 100%. Moreover, the IC50 in experiment [2] was over 30 µM.
In the case of `CCOc1nc2nn(-c3c(C)cc(C(F)(F)F)cc3F)cc2c(=O)[nH]1` [Example 64, 6-ethoxy-2-[2-fluoro-6-methyl-4-(trifluoromethyl)phenyl]-2,5-dihydro-4H-pyrazolo[3,4-d]pyrimidin-4-one], the inhibition at 0.3 µM in experiment [1] is 100%. This compound also registered an IC50 in experiment [2] of over 30 µM.
As to `CCOc1nc2nn(-c3c(C)cc(Cl)cc3F)cc2c(=O)[nH]1` [Example 65, 2-(4-chloro-2-fluoro-6-methylphenyl)-6-ethoxy-2,5-dihydro-4H-pyrazolo[3,4-d]pyrimidin-4-one], in experiment [1], the inhibition at 0.3 µM turned out to be 96%. For the same compound, the IC50 in experiment [2] was over 30 µM.
For the compound `Cc1cc(C)c(-n2cc3c(=O)[nH]c(-c4cccn(C)c4=O)nc3n2)c(O)c1` [Example 66, 2-(2-hydroxy-4,6-dimethylphenyl)-6-(1-methyl-2-oxo-1,2-dihydropyridin-3-yl)-2,5-dihydro-4H-pyrazolo[3,4-d]pyrimidin-4-one], the inhibition at 0.3 µM in experiment [1] turned out to be 97%. The same compound came in with an IC50 in experiment [2] of over 30 µM.
The like results for `Cc1cc(C)c(-n2cc3c(=O)[nH]c(CC4CCCCO4)nc3n2)c(O)c1` (stereo not shown) [Example 67, 2-(2-hydroxy-4,6-dimethylphenyl)-6-[(oxan-2-yl)methyl]-2,5-dihydro-4H-pyrazolo[3,4-d]pyrimidin-4-one] were, in that order, 98% and over 30 µM.
The matching figures for `Cc1cc(C)c(-n2cc3c(=O)[nH]c(CC(C)(C)C)nc3n2)c(O)c1` [Example 68, 6-(2,2-dimethylpropyl)-2-(2-hydroxy-4,6-dimethylphenyl)-2,5-dihydro-4H-pyrazolo[3,4-d]pyrimidin-4-one]: 97% and 0.279 µM.
As to `CCOc1nc2nn(-c3ccc(C(F)(F)F)cc3C)cc2c(=O)[nH]1` [Example 69, 6-ethoxy-2-[2-methyl-4-(trifluoromethyl)phenyl]-2,5-dihydro-4H-pyrazolo[3,4-d]pyrimidin-4-one], in experiment [1], the inhibition at 0.3 µM was 100%. Also, the IC50 in experiment [2] was over 30 µM.
The like results for `CCOc1nc2nn(-c3c(C)cc(C)cc3Cl)cc2c(=O)[nH]1` [Example 70, 2-(2-chloro-4,6-dimethylphenyl)-6-ethoxy-2,5-dihydro-4H-pyrazolo[3,4-d]pyrimidin-4-one] were, in that order, 100% and over 30 µM.
The matching figures for `Cc1cc(C)c(-n2cc3c(=O)[nH]c(C(C)(C)C)nc3n2)c(O)c1` [Example 71, 6-tert-butyl-2-(2-hydroxy-4,6-dimethylphenyl)-2,5-dihydro-4H-pyrazolo[3,4-d]pyrimidin-4-one]: 96% and 1.69 µM.
For the compound `CCOc1nc2nn(-c3c(C)ccc(CC)c3O)cc2c(=O)[nH]1` [Example 72, 6-ethoxy-2-(3-ethyl-2-hydroxy-6-methylphenyl)-2,5-dihydro-4H-pyrazolo[3,4-d]pyrimidin-4-one], in experiment [1], the inhibition at 0.3 µM worked out at 94%. The same compound showed an IC50 in experiment [2] of over 30 µM.
In the case of `CCOc1nc2nn(-c3c(F)cc(C)cc3C(F)(F)F)cc2c(=O)[nH]1` [Example 73, 6-ethoxy-2-[2-fluoro-4-methyl-6-(trifluoromethyl)phenyl]-2,5-dihydro-4H-pyrazolo[3,4-d]pyrimidin-4-one], in experiment [1], the inhibition at 0.3 µM was 97%. This compound had an IC50 in experiment [2] of over 30 µM.
As for `Cc1cc(C)c(-n2cc3c(=O)[nH]c(C)nc3n2)c(O)c1` [Example 74, 2-(2-hydroxy-4,6-dimethylphenyl)-6-methyl-2,5-dihydro-4H-pyrazolo[3,4-d]pyrimidin-4-one], the inhibition at 0.3 µM in experiment [1] is 99%. The same compound registered an IC50 in experiment [2] of over 30 µM.
Take `Cc1cc(C)c(-n2cc3c(=O)[nH]c(Cn4cccn4)nc3n2)c(O)c1` [Example 75, 2-(2-hydroxy-4,6-dimethylphenyl)-6-[(1H-pyrazol-1-yl)methyl]-2,5-dihydro-4H-pyrazolo[3,4-d]pyrimidin-4-one]: in experiment [1], the inhibition at 0.3 µM came out at 98%. In experiment [2], this compound registered an IC50 of over 30 µM.
The matching figures for `CCOc1nc2nn(-c3c(F)cc(C)cc3CC)cc2c(=O)[nH]1` [Example 76, 6-ethoxy-2-(2-ethyl-6-fluoro-4-methylphenyl)-2,5-dihydro-4H-pyrazolo[3,4-d]pyrimidin-4-one]: 94% and over 30 µM.
In the case of `Cc1cc(O)c(-n2cc3c(=O)[nH]c(-c4ccncn4)nc3n2)c(C)c1C` [Example 77, 2-(6-hydroxy-2,3,4-trimethylphenyl)-6-(pyrimidin-4-yl)-2,5-dihydro-4H-pyrazolo[3,4-d]pyrimidin-4-one], the inhibition at 0.3 µM in experiment [1] came to 99%. In experiment [2], this compound yielded an IC50 of over 30 µM.
The matching figures for `CCOc1nc2nn(-c3c(F)cc(C)cc3C3CC3(F)F)cc2c(=O)[nH]1` (stereo not shown) [Example 79, 2-[2-(2,2-difluorocyclopropyl)-6-fluoro-4-methylphenyl]-6-ethoxy-2,5-dihydro-4H-pyrazolo[3,4-d]pyrimidin-4-one]: 95% and over 30 µM.
For `Cc1cc(C)c(-n2cc3c(=O)[nH]c(C4CCCCO4)nc3n2)c(O)c1C` (stereo not shown) [Example 81, 2-(2-hydroxy-3,4,6-trimethylphenyl)-6-(oxan-2-yl)-2,5-dihydro-4H-pyrazolo[3,4-d]pyrimidin-4-one], the inhibition at 0.3 µM in experiment [1] came out at 97%. In experiment [2], this compound displayed an IC50 of over 30 µM.
The like results for `CCOc1nc2nn(-c3ccc(C)cc3C)cc2c(=O)[nH]1` [Example 82, 2-(2,4-dimethylphenyl)-6-ethoxy-2,5-dihydro-4H-pyrazolo[3,4-d]pyrimidin-4-one] were, in that order, 98% and over 30 µM.
With `CCOc1nc2nn(-c3ccc(C)cc3OC(F)F)cc2c(=O)[nH]1` [Example 83, 2-[2-(difluoromethoxy)-4-methylphenyl]-6-ethoxy-2,5-dihydro-4H-pyrazolo[3,4-d]pyrimidin-4-one], in experiment [1], the inhibition at 0.3 µM was 99%. The IC50 in experiment [2] is over 30 µM.
